According to a melting point compilation (Tetko et al.; mined from patent text by program, amines drawn as free bases though some values may be those of a salt):
Residues, ends and D or L forms follow the SMILES beside them. *: point of attachment. Cbz = O=C(OCc1ccccc1)*

Work on `NS(=O)(=O)c1ccc(-n2c(-c3ccccc3)csc2=S)cc1` yielded a melting point of 235 °C.
With `CCON=C(CC)C1=C(O)CC(c2ccc(Oc3ncc(C(F)(F)F)cc3F)cc2)CC1=O` (stereo not drawn) the melting point was 82 to 82.5 °C.
`CNS(=O)(=O)c1ccc(-c2cccc3nc(Nc4cc(OC)c(OC)c(OC)c4)oc23)cc1` showed a melting point of 260 to 262 °C.
`N#Cc1ccc(-c2ccc3nncn3n2)cc1` showed a melting point of 272 to 274 °C.
Work on `CC(C)c1c(Br)ccc(N)c1C#N` yielded a melting point of 82 to 85 °C.
`CC(C)(C)NC(=O)[C@@H]1C[C@H](Sc2ccccc2)CN1C(=O)OC(C)(C)C` showed a melting point of 119 to 121 °C.
Work on `O=c1c2c(nc3ccc(Br)cn13)C(=Cc1ccc(Cl)cc1)CC2` yielded a melting point of 233 to 234 °C.
For `O=C(O)c1cc(=O)c2cc(-c3ccccc3)ccc2s1`, the melting point was 220 °C.
`Cc1nc(N2CCN(C)CC2)ccc1N1CCCn2c1nc1c(Cl)ccc(C(OC(F)F)C(F)(F)F)c12` (stereo not drawn) showed a melting point of 193 to 195 °C.
For `O=C(O)CC1CCCCc2c1c1cc(F)ccc1n2Cc1ccc(Cl)cc1` (stereo not drawn), the melting point was 138 to 139 °C.
For `CCCn1cc(-c2ccc3cc4c(cc3c2)C(C)(C)CCC4(C)C)cc1C(=O)O`, the melting point was 143 to 145 °C.
Work on `CCCc1nc(NC)nc(N2CCOCC2)n1` yielded a melting point of 131 to 133 °C.
`CCOC(=O)N1CCC(n2nnnc2CCC(C)Oc2ccc3nc4[nH]c(=O)[nH]c4cc3c2)CC1` (stereo not drawn) showed a melting point of 233 to 236 °C.
With `Cc1cc(OCC2(O)CCS(=O)(=O)CC2)cc(C)c1-c1cccc(CNc2ccc(CCC(=O)O)c(F)c2)c1` the melting point was 178 °C.
Molecule `CN1Cc2c(I)ncn2-c2cccc(Br)c2C1=O` has a melting point of 203 to 204 °C.
`O=S(=O)(Nc1nc2ncc(Cl)cn2n1)c1ccccc1Cl` gave a melting point of 256 to 260 °C.
Work on `CCOC(=O)n1cc(F)c(N)nc1=O` yielded a melting point of 190 to 193 °C.
In the case of `Cn1cc(-c2ccccc2)c(=O)c(-c2ccc(Cl)c(C(F)(F)F)c2)c1`, the melting point is reported as 154 to 155 °C.
`COC(=O)C1Cc2cc(OC)ccc2N1` (racemic) gave a melting point of 59 to 61 °C.
In the case of `CCCCCCCCCCCCCCCCCCN(C)P1OCC2(CO1)COP(N(C)CCCCCCCCCCCCCCCCCC)OC2` (stereo not drawn), the melting point is reported as 70 to 72 °C.
With `CC(=O)OC1C(N2CCCCC2)CC2C3CCC4CCC(O)CC4(C)C3CCC21C` (stereo not drawn) the melting point was 239 to 240 °C.
`CN1CCN(c2cccc3c2C[C@H](NC(=O)c2csc(-c4ccncc4)n2)CC3)CC1` showed a melting point of 187 to 188 °C.
`Cc1c(-c2ccccc2)oc2c(C(=O)NCCCN3CCN(c4ccc(Cl)cc4)CC3)cccc2c1=O` gave a melting point of 200 to 204 °C.
`CCCC[C@H](NC(=O)C(CS)C(F)(F)F)C(=O)O` (stereo partly drawn) gave a melting point of 96 to 98 °C.
In the case of `CCS(=O)(=O)N[C@H](C(=O)NCCc1ccc(OCCOc2ccc(F)cc2)c(OC)c1)C(C)C`, the melting point is reported as 124 to 125 °C.
With `O=C(N[C@H](Cc1ccc(C(F)(F)F)cc1)[C@@H](O)c1cccc(F)c1)c1ccc(F)c2ccccc12` (racemic) the melting point was 200 to 201 °C.
Work on `NC(=O)C(O)C1CC=CCC1` (stereo not drawn) yielded a melting point of 139 to 141 °C.
Work on `CC(C)N(CCN1C(=O)/C(=N/NC(N)=O)c2cc(Br)ccc21)C(C)C` yielded a melting point of 149 to 153 °C.
Work on `O=C(Nc1nc(-c2ccco2)c(C(=O)C2CCOCC2)s1)c1ccc(Cl)nc1` yielded a melting point of 233 to 235 °C.
In the case of `Clc1ccc(-c2c(-c3ccncc3)nc(-c3c(Cl)cccc3Cl)n2C2CC2)cc1`, the melting point is reported as 210 to 211 °C.
Work on `COc1ccc(S(=O)(=O)Nc2cccc(C)c2NC(=O)c2ccccn2)cc1` yielded a melting point of 180 to 182 °C.
`CC(c1cc2ccccc2s1)N(OCc1ccccc1)C(N)=O` (stereo not drawn) gave a melting point of 126 °C.
`COc1ccc2oc(Cn3cnc4c(N)ncnc43)c(-c3ccccc3)c(=O)c2c1` gave a melting point of 197 to 198 °C.
Work on `O=C1Cc2cccc(OCc3ccccc3)c2N1` yielded a melting point of 140 to 142 °C.
`Cc1c(C(=O)O)cnn1-c1cccc(Cl)c1` gave a melting point of 145 °C.
Work on `C=CCOc1cc(Cl)ccc1C(=O)OC` yielded a melting point of 47 to 55 °C.
Molecule `CCc1nc(-c2ccnnc2)no1` has a melting point of 73 to 74 °C.
With `COc1ccc(-c2nc(S(=O)(=O)c3ccccc3)[nH]c2-c2ccc(OC)cc2)cc1` the melting point was 106 °C.
Work on `COC(=O)c1ccc(OC)c(NC(=NCl)c2ccc(Cl)cc2)c1` yielded a melting point of 120 °C.
`Cc1cccc(-c2ccc(NC(=O)OC(C)(C)C)c([N+](=O)[O-])c2)c1` showed a melting point of 83 to 85 °C.
`COCC(O)COc1ccc2nc(S(N)(=O)=O)sc2c1` (stereo not drawn) gave a melting point of 153 to 155 °C.
In the case of `Cc1nn(-c2c(Cl)cc(C(F)(F)F)cc2Cl)nc1-c1nc(C#N)c(C#N)[nH]1`, the melting point is reported as 228 to 229 °C.
In the case of `CCCN(CC1CC1)c1nc(C)nc2c1c(C)c(C)n2-c1c(C)cc(C)c2nsnc12`, the melting point is reported as 136 °C.
In the case of `CC1(C)COC(c2sccc2C2c3cc4c(cc3OCC2[N+](=O)[O-])OCO4)=N1` (stereo not drawn), the melting point is reported as 138 to 140 °C.
In the case of `CC(=O)OC1CSC(Oc2ccc3ncsc3c2)C(OC(C)=O)C1OC(C)=O` (stereo not drawn), the melting point is reported as 166 °C.
`Nc1nc(CCCO)nc2c1ncn2C1OC(CO)C(O)C1S` (stereo not drawn) showed a melting point of 117 to 119 °C.
`CC(=O)c1ccc2c(c1)Cc1cc(C#N)ccc1-2` showed a melting point of 182 to 188 °C.
With `NN1CN=Cc2c(NC3OC(CO)C(O)C3O)ncnc21` (stereo not drawn) the melting point was 209 to 214 °C.
Molecule `CCCCCCCCCC(=O)NC(=O)OCc1nc(C(C)C)c(Sc2cc(Cl)cc(Cl)c2)n1Cc1ccncc1` has a melting point of 84 to 86 °C.
In the case of `O=C(NCCCc1ccc(CCl)cc1)c1ccc(-c2ccccn2)cc1`, the melting point is reported as 115 to 117 °C.
In the case of `Cn1nc(-c2c(F)cccc2Cl)nc1COc1ccc(C(C)(C)C)cc1`, the melting point is reported as 84 to 86 °C.
In the case of `CNC(=O)c1cnc(N2CCOCC2)cc1-c1ccccc1C`, the melting point is reported as 156 to 158 °C.
`CC(C)(COc1ccccc1)C(=O)c1ccc(Br)cc1` gave a melting point of 73 to 74 °C.
`N#Cc1nn(-c2c(Cl)cc(C(F)(F)F)cc2Cl)cc1C=C(F)F` gave a melting point of 75 to 77 °C.
In the case of `CC(Cc1ccc(F)cc1)(NC(=O)CNC(=O)CN)c1ccc(F)cc1` (stereo not drawn), the melting point is reported as 139 to 140 °C.
Work on `Cc1ccc(-c2ccc(O)cc2)c(-c2ccc(OCCN3CCCC3)cc2)n1` yielded a melting point of 159 to 161 °C.
`COc1cc(Cc2ccc3nc(N)nc(N)c3c2)cc(OC)c1` gave a melting point of 230 to 232 °C.
With `CCCOc1cccc(CO)c1I` the melting point was 75 to 75.5 °C.
In the case of `Cn1cc(-c2cccc(C(F)(F)F)c2)c(=O)c(-c2ccccc2F)c1`, the melting point is reported as 152 to 154 °C.
Work on `Cc1nn2c(-c3cccc(NC(=O)OC(C)C)c3)ccnc2c1C(=O)c1cccs1` yielded a melting point of 186 to 188 °C.
With `CN(C)CC1CCc2cc(NC(=O)c3ccc(-c4ccc(N)cc4)cc3)ccc2C1` (stereo not drawn) the melting point was 148 to 150 °C.
In the case of `CCCCCCC(C)(C)c1ccc(C2CC(=O)CC(=O)C2)c(OCc2ccccc2)c1`, the melting point is reported as 102 to 103 °C.
With `Cc1nc(N2CCN(CC3CC3(F)F)C2=O)sc1C(=O)NCc1cccnc1` (stereo not drawn) the melting point was 169 to 171 °C.
With `COC(=O)c1ccc(-c2nc(-c3ccc(Oc4ccccc4)cc3)no2)cc1` the melting point was 112 to 113 °C.
With `COCCOc1cc(Oc2ccc(C(F)(F)F)cn2)ccc1CCCOc1cc(CCC(=O)O)n(C)n1` the melting point was 110 °C.
In the case of `COc1ccc(C(=O)Nc2c(Cl)cncc2Cl)c2cc(C)oc12`, the melting point is reported as 233 °C.
In the case of `CCCCCCCCC(CCCCCCCC)N1C(=O)c2ccc3c4cccc5cccc(c6ccc(c2c36)C1=O)c54`, the melting point is reported as 143 to 144 °C.
For `O=C(OCc1ccc(OCCc2ccc(Cl)cc2)cc1)c1cccnc1`, the melting point was 77 to 78 °C.
`CNC(=O)n1cnc(C)c1Cl` gave a melting point of 94.1 to 94.4 °C.
Work on `Cc1nnc2n1-c1ccc(C#CCn3c(C)nc4ccccc4c3=O)cc1C(c1ccccc1F)=NC2` yielded a melting point of 241 to 244 °C.
`Cc1nc(C)c(C(C)(O)c2ccccc2)s1` (stereo not drawn) showed a melting point of 131 to 132 °C.
`NC(=O)c1sc2ncnc(-c3cccc(NC(=O)Nc4ccccc4C(F)(F)F)c3)c2c1N` gave a melting point of 172 to 175 °C.
Molecule `COc1cc(Nc2nccc(-c3ccc(NC(C)=O)cc3)n2)cc(OC)c1OC` has a melting point of 239 °C.
In the case of `CC(C)(C)OC(=O)[C@H](CC1CC1)N1C(=O)NC(C(F)(F)F)(C(F)(F)F)C1=O`, the melting point is reported as 76 to 77 °C.
`CCc1nc2cnc3ccccc3c2n1CCCCNS(C)(=O)=O` gave a melting point of 166 to 168 °C.
Molecule `O=C(O)c1ccc(CNC=C2C(=O)c3ccccc3OC2c2ccccc2)cc1` (stereo not drawn) has a melting point of 195 to 200 °C.
Molecule `Cc1nc2ccccc2n1Cc1ccc(C(=O)NC2CCN(C(=O)OC(C)(C)C)CC2)cc1` has a melting point of 77 to 79 °C.
With `O=C(O)CCCCCCCCC(=O)c1ccccc1O` the melting point was 85 to 87 °C.
`c1cc(NC2=NCCN2)ccc1Cc1ccc(N2CCOCC2)cc1` gave a melting point of 177 to 179 °C.
Molecule `CC1=CC(c2ccccc2Cl)C(c2nnco2)=C(C)N1` (stereo not drawn) has a melting point of 192 to 194 °C.
In the case of `COC(=O)C(C)NC(=O)C1CCCN1C(=O)CNC(=O)OCc1ccccc1` (stereo not drawn) (Cbz-Gly-Pro-Ala-OMe; configuration not given here), the melting point is reported as 103 to 106 °C.
Molecule `Cc1cc(C(=O)NC(C#N)c2ccccc2)n(C)n1` (stereo not drawn) has a melting point of 135 to 136 °C.
With `COc1cc(OC)cc(-c2ncn(C)c2-c2cc(F)c(F)c(F)c2)c1` the melting point was 159 to 160 °C.
Molecule `CC(CCCN(C)C)C1CC(=O)C2=C3CCC4CC(O)CCC4(C)C3CCC21C` (stereo not drawn) has a melting point of 160 to 162 °C.
In the case of `CCOC(=O)CC(=O)Nc1cccc2ccccc12`, the melting point is reported as 80 to 81 °C.
`COc1cc2[nH]c(N(C)Cc3cccc(N4CCCC4=O)c3)nc(=O)c2c(OC)c1OC` showed a melting point of 166 °C.
`CCC1c2cccn2-c2cc(Cl)ccc2N1S(=O)(=O)c1ccc(O)cc1` (stereo not drawn) gave a melting point of 192 to 194 °C.
In the case of `Clc1ccc(Nc2ncc(Sc3ccncc3)c3ccccc23)cc1`, the melting point is reported as 192 to 195 °C.
In the case of `C=CCC1Oc2c(C)c(C)c(O)c(C)c2S1` (stereo not drawn), the melting point is reported as 78.5 to 79.5 °C.
`O=C(c1cccc(C(F)(F)F)c1)c1ncccc1C(O)=NNc1ccc(C(F)(F)F)cc1` gave a melting point of 127 to 129 °C.
In the case of `O=C(Nc1cccc(-c2ccnc3c(C(=O)c4cccs4)cnn23)c1)c1cccc(Br)c1`, the melting point is reported as over 300 °C.
For `C=CCOC(=O)CCc1cc(C(C)(C)C)c(O)c(C(C)(C)C)c1`, the melting point was 40 °C.
Molecule `C=C(C)c1cc(Br)c(Oc2nc(C)nc3c2nnn3C(CCC)CCC)c(OC)c1` has a melting point of 110 to 115 °C.
Work on `Nc1nc2c(nnn2COC(CO)CO)c(=O)[nH]1` yielded a melting point of 233 to 234 °C.
In the case of `COc1cccc2nc(-c3ccc(OCCO)c(-c4ccc(S(C)(=O)=O)cc4)n3)[nH]c(=O)c12`, the melting point is reported as over 300 °C.
Molecule `CCOC(=O)C(C)(C)CCS(N)(=O)=O` has a melting point of 93 to 94 °C.
`O=C(O)C=C1SC(=NCCc2ccccc2)N(CCc2ccccc2)C1=O` showed a melting point of 148 to 149 °C.
`CC(O)(CCCl)c1ccc(-c2ccc(F)cc2)cc1` (stereo not drawn) gave a melting point of 78 to 79 °C.
